{"source": "patent US20250381243A1", "about": "“HETEROCYCLES AND USES THEREOF” (Kumquat Biosciences Inc., priority 2022, published 2025)", "tested_on": "A549 cells", "experiment": "Cell proliferation assay (CellTiter-Glo), cells with K-Ras G12S mutation", "assay_type": "cell-based", "details": "Homo sapiens, read-out: Inhibition of A549 Cells (IC50)", "in_short": "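A549 (K-Ras G12S) cells in RPMI-1640 with 10% heat-inactivated FBS, plated in standard or ultra-low-attachment 384-well format, treated next day with a dilution series (e.g., 10-point, 3-fold). Viability read by CellTiter-Glo luminescence about 6 days later; IC50 from four-parameter fit.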", "note": "Read-outs that look alike come from different tables or passages of the source.", "data": [{"compound": "CC(C)[C@H]1N(C(=O)n2cncn2)C[C@]12CCCN(c1nc(OC[C@@]34CCCN3C[C@H](F)C4)nc3c(F)c(-c4ccc(F)c5sc(N)c(C#N)c45)c(Cl)cc13)C2", "note": "[Compound 118, 2-amino-4-(6-chloro-8-fluoro-2-(((2R,7aS)-2-fluorotetrahydro-1H-pyrrolizin-7a(5H)-yl)methoxy)-4-((1R,4R)-1-isopropyl-2-(1H-1,2,4-triazole-1-carbonyl)-2,6-diazaspiro[3.5]nonan-6-yl)quinazolin-7-yl)-7-fluorobenzo[b]thiophene-3-carbonitrile]", "values": [{"measurement": "IC50", "setting": "≤500 nM", "result": "≤ 500", "unit": "nM"}]}, {"compound": "CN(C[C@@H]1CN(C(=O)n2cnc(C(F)F)n2)[C@@H]1C(C)(C)C)c1nc(OC[C@@]23CCCN2C[C@H](F)C3)nc2c(F)c(-c3ccc(F)c4sc(N)c(C#N)c34)c(Cl)cc12", "note": "[Compound 228, 2-amino-4-(4-((((2S,3R)-2-(tert-butyl)-1-(3-(difluoromethyl)-1H-1,2,4-triazole-1-carbonyl)azetidin-3-yl)methyl)(methyl)amino)-6-chloro-8-fluoro-2-(((2R,7aS)-2-fluorotetrahydro-1H-pyrrolizin-7a(5H)-yl)methoxy)quinazolin-7-yl)-7-fluorobenzo[b]thiophene-3-carbonitrile]", "values": [{"measurement": "IC50", "setting": "≤500 nM", "result": "≤ 500", "unit": "nM"}]}, {"compound": "C[C@H]1CC[C@]2(CN(C(=O)n3cnc(F)n3)[C@@H]2C2CCC2)CN1c1nc(OC[C@@]23CCCN2C[C@H](F)C3)nc2c(F)c(-c3ccc(F)c4sc(N)c(C#N)c34)c(Cl)cc12", "note": "[Compound 199, 2-amino-4-(6-chloro-4-((1R,4R,7S)-1-cyclobutyl-2-(3-fluoro-1H-1,2,4-triazole-1-carbonyl)-7-methyl-2,6-diazaspiro[3.5]nonan-6-yl)-8-fluoro-2-(((2R,7aS)-2-fluorotetrahydro-1H-pyrrolizin-7a(5H)-yl)methoxy)quinazolin-7-yl)-7-fluorobenzo[b]thiophene-3-carbonitrile]", "values": [{"measurement": "IC50", "setting": "≤500 nM", "result": "≤ 500", "unit": "nM"}]}, {"compound": "CC(C)C1N(C(=O)n2cncn2)CC12CCCN(c1nc(OC[C@@]34CCCN3C[C@H](F)C4)nc3c(F)c(-c4ccc(F)c5sc(N)c(C#N)c45)c(Cl)cc13)C2", "note": "(stereo partly drawn) [Compound 116, 2-amino-4-(6-chloro-8-fluoro-2-(((2R,7aS)-2-fluorotetrahydro-1H-pyrrolizin-7a(5H)-yl)methoxy)-4-(1-isopropyl-2-(1H-1,2,4-triazole-1-carbonyl)-2,6-diazaspiro[3.5]nonan-6-yl)quinazolin-7-yl)-7-fluorobenzo[b]thiophene-3-carbonitrile]", "values": [{"measurement": "IC50", "setting": "≤500 nM", "result": "≤ 500", "unit": "nM"}]}, {"compound": "N#Cc1c(N)sc2c(F)ccc(-c3c(Cl)cc4c(N5CCCC6(C5)CN(C(=O)n5cncn5)C6C5CC5)nc(OC[C@@]56CCCN5C[C@H](F)C6)nc4c3F)c12", "note": "(stereo partly drawn) [Compound 127, 2-amino-4-(6-chloro-4-(1-cyclopropyl-2-(1H-1,2,4-triazole-1-carbonyl)-2,6-diazaspiro[3.5]nonan-6-yl)-8-fluoro-2-(((2R,7aS)-2-fluorotetrahydro-1H-pyrrolizin-7a(5H)-yl)methoxy)quinazolin-7-yl)-7-fluorobenzo[b]thiophene-3-carbonitrile]", "values": [{"measurement": "IC50", "setting": "≤500 nM", "result": "≤ 500", "unit": "nM"}]}, {"compound": "C[C@H]1CC[C@]2(CN(C(=O)n3cnc(Cl)n3)[C@@H]2C2CCC2)CN1c1nc(OC[C@@]23CCCN2C[C@H](F)C3)nc2c(F)c(-c3ccc(F)c4sc(N)c(C#N)c34)c(Cl)cc12", "note": "[Compound 146, 2-amino-4-(6-chloro-4-((1R,4R,7S)-2-(3-chloro-1H-1,2,4-triazole-1-carbonyl)-1-cyclobutyl-7-methyl-2,6-diazaspiro[3.5]nonan-6-yl)-8-fluoro-2-(((2R,7aS)-2-fluorotetrahydro-1H-pyrrolizin-7a(5H)-yl)methoxy)quinazolin-7-yl)-7-fluorobenzo[b]thiophene-3-carbonitrile]", "values": [{"measurement": "IC50", "setting": "≤500 nM", "result": "≤ 500", "unit": "nM"}]}, {"compound": "CC(C)[C@@H]1[C@H](CN(C)c2nc(OC[C@@]34CCCN3C[C@H](F)C4)nc3c(F)c(-c4ccc(F)c5sc(N)c(C#N)c45)c(Cl)cc23)CN1C(=O)n1cnc(C#N)n1", "note": "(atropisomer, axis not shown; (aS)) [Compound 162, 1-((2R,3R)-3-(((7-((R)-2-amino-3-cyano-7-fluorobenzo[b]thiophen-4-yl)-6-chloro-8-fluoro-2-(((2R,7aS)-2-fluorotetrahydro-1H-pyrrolizin-7a (5H)-yl)methoxy)quinazolin-4-yl)(methyl)amino)methyl)-2-isopropylazetidine-1-carbonyl)-1H-1,2,4-triazole-3-carbonitrile]", "values": [{"measurement": "IC50", "setting": "≤500 nM", "result": "≤ 500", "unit": "nM"}]}, {"compound": "CN(C(=O)n1cncn1)C1CCCN(c2nc(OC[C@@]34CCCN3C[C@H](F)C4)nc3c(F)c(-c4ccc(F)c5sc(N)c(C#N)c45)c(Cl)cc23)C1", "note": "(stereo partly drawn) [Compound 119, N-(1-(7-(2-amino-3-cyano-7-fluorobenzo[b]thiophen-4-yl)-6-chloro-8-fluoro-2-(((2R,7aS)-2-fluorotetrahydro-1H-pyrrolizin-7a(5H)-yl)methoxy)quinazolin-4-yl)piperidin-3-yl)-N-methyl-1H-1,2,4-triazole-1-carboxamide]", "values": [{"measurement": "IC50", "setting": "≤500 nM", "result": "≤ 500", "unit": "nM"}]}, {"compound": "CC1CC(N(C)C(=O)n2cnc(Cl)n2)CN1c1nc(OC[C@@]23CCCN2C[C@H](F)C3)nc2c(F)c(-c3ccc(F)c4sc(N)c(C#N)c34)c(Cl)cc12", "note": "(single isomer, unassigned) [Compound 105]", "values": [{"measurement": "IC50", "setting": "500 nM to 5 μM (mixed units)", "result": "500 to 5000", "unit": "nM"}]}, {"compound": "N#CCCN(C(=O)n1cncn1)C1CCN(c2nc(OC[C@@]34CCCN3C[C@H](F)C4)nc3c(F)c(-c4ccc(F)c5sc(N)c(C#N)c45)c(Cl)cc23)C1", "note": "(stereo partly drawn) [Compound 145, N-(1-(7-(2-amino-3-cyano-7-fluorobenzo[b]thiophen-4-yl)-6-chloro-8-fluoro-2-(((2R,7aS)-2-fluorotetrahydro-1H-pyrrolizin-7a(5H)-yl)methoxy)quinazolin-4-yl)pyrrolidin-3-yl)-N-(2-cyanoethyl)-1H-1,2,4-triazole-1-carboxamide]", "values": [{"measurement": "IC50", "setting": "500 nM to 5 μM (mixed units)", "result": "500 to 5000", "unit": "nM"}]}, {"compound": "CC(C)[C@H]1N(C(=O)n2cnc(F)n2)C[C@]12CCCCN(c1nc(OC[C@@]34CCCN3C[C@H](F)C4)nc3c(F)c(-c4ccc(F)c5sc(N)c(C#N)c45)c(Cl)cc13)C2", "note": "[Compound 141, 2-amino-4-(6-chloro-8-fluoro-4-((1R,4R)-2-(3-fluoro-1H-1,2,4-triazole-1-carbonyl)-1-isopropyl-2,6-diazaspiro[3.6]decan-6-yl)-2-(((2R,7aS)-2-fluorotetrahydro-1H-pyrrolizin-7a(5H)-yl)methoxy)quinazolin-7-yl)-7-fluorobenzo[b]thiophene-3-carbonitrile]", "values": [{"measurement": "IC50", "setting": "≤500 nM", "result": "≤ 500", "unit": "nM"}]}, {"compound": "CC(C)[C@H]1N(C(=O)n2cnc(F)n2)C[C@]12CC(CC#N)CN(c1nc(OC[C@@]34CCCN3C[C@H](F)C4)nc3c(F)c(-c4ccc(F)c5sc(N)c(C#N)c45)c(Cl)cc13)C2", "note": "(stereo partly drawn) [Compound 235, 2-amino-4-(6-chloro-4-((1R,4R)-8-(cyanomethyl)-2-(3-fluoro-1H-1,2,4-triazole-1-carbonyl)-1-isopropyl-2,6-diazaspiro[3.5]nonan-6-yl)-8-fluoro-2-(((2R,7aS)-2-fluorotetrahydro-1H-pyrrolizin-7a(5H)-yl)methoxy)quinazolin-7-yl)-7-fluorobenzo[b]thiophene-3-carbonitrile]", "values": [{"measurement": "IC50", "setting": "≤500 nM", "result": "≤ 500", "unit": "nM"}]}, {"compound": "CC(C)[C@@H]1[C@H](CN(C)c2nc(OC[C@@]34CCCN3C[C@H](F)C4)nc3c(F)c(-c4ccc(F)c5sc(N)c(C#N)c45)c(Cl)cc23)CN1C(=O)n1cnc(Cl)n1", "note": "[Compound 208, 2-amino-4-(6-chloro-4-((((2R,3R)-1-(3-chloro-1H-1,2,4-triazole-1-carbonyl)-2-isopropylazetidin-3-yl)methyl)(methyl)amino)-8-fluoro-2-(((2R,7aS)-2-fluorotetrahydro-1H-pyrrolizin-7a(5H)-yl)methoxy)quinazolin-7-yl)-7-fluorobenzo[b]thiophene-3-carbonitrile]", "values": [{"measurement": "IC50", "setting": "≤500 nM", "result": "≤ 500", "unit": "nM"}]}, {"compound": "CCN(C[C@@H]1CN(C(=O)n2cnc(Cl)n2)[C@@H]1C(C)C)c1nc(OC[C@@]23CCCN2C[C@H](F)C3)nc2c(F)c(-c3ccc(F)c4sc(N)c(C#N)c34)c(Cl)cc12", "note": "[Compound 154, 2-amino-4-(6-chloro-4-((((2R,3R)-1-(3-chloro-1H-1,2,4-triazole-1-carbonyl)-2-isopropylazetidin-3-yl)methyl)(ethyl)amino)-8-fluoro-2-(((2R,7aS)-2-fluorotetrahydro-1H-pyrrolizin-7a(5H)-yl)methoxy)quinazolin-7-yl)-7-fluorobenzo[b]thiophene-3-carbonitrile]", "values": [{"measurement": "IC50", "setting": "≤500 nM", "result": "≤ 500", "unit": "nM"}]}, {"compound": "CN(C(=O)n1cncn1)C1CN(c2nc(OC[C@@]34CCCN3C[C@H](F)C4)nc3c(F)c(-c4ccc(F)c5sc(N)c(C#N)c45)c(Cl)cc23)CC12CC2", "note": "(stereo partly drawn) [Compound 140, N-(5-(7-(2-amino-3-cyano-7-fluorobenzo[b]thiophen-4-yl)-6-chloro-8-fluoro-2-(((2R,7aS)-2-fluorotetrahydro-1H-pyrrolizin-7a(5H)-yl)methoxy)quinazolin-4-yl)-5-azaspiro[2.4]heptan-7-yl)-N-methyl-1H-1,2,4-triazole-1-carboxamide]", "values": [{"measurement": "IC50", "setting": "500 nM to 5 μM (mixed units)", "result": "500 to 5000", "unit": "nM"}]}, {"compound": "CN(C(=O)n1cnc(Cl)n1)C1CCN(c2nc(OC[C@@]34CCCN3C[C@H](F)C4)nc3c(F)c(-c4ccc(F)c5sc(N)c(C#N)c45)c(Cl)cc23)C1(C)C", "note": "(single isomer, unassigned) [Compound 198]", "values": [{"measurement": "IC50", "setting": "≤500 nM", "result": "≤ 500", "unit": "nM"}]}, {"compound": "COCC1([C@H]2N(C(=O)n3cnc(F)n3)C[C@]23CCCCN(c2nc(OC[C@@]45CCCN4C[C@H](F)C5)nc4c(F)c(-c5ccc(F)c6sc(N)c(C#N)c56)c(Cl)cc24)C3)CC1", "note": "[Compound 219, 2-amino-4-(6-chloro-8-fluoro-4-((1S,4R)-2-(3-fluoro-1H-1,2,4-triazole-1-carbonyl)-1-(1-(methoxymethyl)cyclopropyl)-2,6-diazaspiro[3.6]decan-6-yl)-2-(((2R,7aS)-2-fluorotetrahydro-1H-pyrrolizin-7a(5H)-yl)methoxy)quinazolin-7-yl)-7-fluorobenzo[b]thiophene-3-carbonitrile]", "values": [{"measurement": "IC50", "setting": "≤500 nM", "result": "≤ 500", "unit": "nM"}]}]}
